Like-named read-outs stand apart in the source and are kept apart here.
Tests used:
[1] = cited from earlier work
Experimental: S100A4 contains two tyrosine residues (one in each of the EF-hand domains), and mutating each in turn to phenylalanine enabled us to identify the source of the signal change. […] Ca^2+ binds to the S100A4 dimer with an affinity of around 2–6 μM. […] Regarding the assignment of the sites to EF1 or EF2, the E33Q mutant appears more similar to wild-type S100A4 than the D63N mutant and has an intact EF2 site, as determined by tyrosine and Quin-2 fluorescence (Fig. 3a; ...

M200 filaments [2] = conditions: cited from earlier work
Text: Over the last two decades, there has been much interest in the role of the S100 Ca^2^+-binding protein family in the regulation of cellular events.[1,2] Identifying the specific targets of each of the 24 members[3] and deducing their mechanisms of action in vitro and in vivo remain to be a challenge. This is exemplified by S100A4 (also known as Mts1, metastasin, p9Ka, pEL98, calvasculin, and Fsp-1), which has been implicated in a wide range of cellular events and numerous diseases and binds to several different targets in vitro.[4–6] In particular, following early work,[7–9] there have been ma ... || A corresponding stoichiometry is also seen in the interaction of S100A4 with M200, where 2 mol of S100A4 monomer was required to solubilise 1 mol of M200 aggregate (when expressed as M200 polypeptide chain concentration) (Fig. 9b). […] These stoichiometries complicate the calculation of the equilibrium parameters for the models described in Schemes 1 and 2. If the binding sites remaine ...

M200 filaments [3] = assay type: biochemical, human
Experimental: Fig. 9 Dissociation of M200 filaments by S100A4. (a) Initially, M200 was added (i) from a concentrated stock in 0.5 M NaCl to give a final concentration of 5 μM M200 (with respect to the polypeptide chain) in 100 mM NaCl, 10 mM Hepes, and 0.1 mM Ca^2+ at pH 7.5 and 20 °C. A biphasic rise in turbidity was recorded for 200 s (continuous line). Then 10 μM S100A4 (with respect to monomer concentration) was added (ii), followed by 0.2 mM EGTA (iii) and 1 mM Ca^2+ (iv). […] (b) M200 was diluted (i) into 100 mM NaCl to form filaments as in (a), then 5 μM S100A4 was added (ii), causing a 54% drop in turbidity. A further 5 μM S100A4 (iii) caused turbidity to fall to almost zero. (c) Stopped-flow records monitoring the dissociation of 5 μM M200 filaments on jumping [NaCl] from 100 mM to 120 mM NaCl. Other components of the buffer were 20 mM Hepes, 1 mM Mg^2+, and 100 μM Ca^2+ at pH 7.5 and 20 °C. […] In the presence of 20 μM S100A4 (lower trace), the turbidity decreased by 87% with a rate constant of 0.2 s^− 1.
Absorption spectra were recorded using a Cary 50 spectrophotometer (Varian Ltd., Walton on Thames, UK). Protein concentrations were calculated from their absorbance at 280 nm, using molar coefficients of 2980 M^− 1 cm^− 1 (M200 and S100A4) and 1490 M^− 1 cm^− 1 (M111), based on their tyrosine content (two residues per chain and one residue per chain, respectively). Myosin fragments were measured in 0.5 M NaCl buffer, and care was taken to correct for the small contribution from turbidity. Protein concentrations are stated in terms of their monomeric polypeptide chain concentration. Under the conditions used for kinetic analysis, S100A4 is predominantly a dimer,[21,25] and M200 and M111 form stable coiled coils; therefore, the molar protein concentrations are half those given in all three cases. Fluorescence emission spectra were also checked, and those preparations containing a detectable shoulder at 340 nm due to contaminating tryptophan-containing proteins were subjected to further purification. F-M16^N concentrations were based on fluorescein absorbance (ɛ490 = 78,000 M^− 1 cm^− 1). […] Quin-2 concentrations were calculated from ɛ354 = 5000 M^− 1 cm^− 1 in the absence of Ca^2+.[39] Turbidity assays used to monitor M200 filament formation and solubilisation with manual mixing were carried out using a 10-mm pathlength and a 0.1-ml microcuvette (105.250-QS; Hellma, Southend on Sea, UK) at a wavelength of 300 nm. For determination of the free Ca^2+ concentration, Fura-2 fluorescence excitation spectra were measured in the same cuvette using the 2-mm path for excitation to minimise inner filter effects.

[4] = Isothermal titration calorimetry of Ca^2+ binding to S100A4 constructs
Experimental: Fig. 2 ITC records for Ca^2+ binding to S100A4 constructs: (a) 75 μM wild type at 30 °C; (b) 75 μM wild type at 10 °C; (c) 75 μM E33Q construct at 30 °C; (d) 300 μM D63N construct at 30 °C. For mutant constructs data at 10 °C, see Fig. S1. All preparations were dialysed against the same buffer of 20 mM NaCl, 10 mM Hepes, and 2 mM DTT (pH 7.5).
ITC data were collected using a VP-ITC microcalorimeter (MicroCal Ltd., Northampton, MA) and analysed by fitting to a single-site binding equation or a two-site binding equation using MicroCal Origin software.

Q: For “S100A4: recombinant S100A4 expressed in E. coli BL21(DE3)”, which “Ca^2+ bound per S100A4 monomer” value ([1]; amplitude of tyrosine fluorescence change on addition of Ca^2+) is on record?
A: 1.7 ± 0.18 Ca^2+ bound per S100A4 monomer

Q: What about the “Ca^2+ dissociation rate constant (tyrosine)” value [1] of the same substance?
A: 20 s^− 1

Q: And the “dissociation of rod filaments” value (M200 filaments [2]; 20 mM NaCl)?
A: ineffective at dissociating rod filaments

Q: What about the “S100A4 dimer required to disassemble 1 mol of NM-MHC IIA rods” value (M200 filaments [2]; ref 11 (Li et al.)) of the same substance?
A: 1 mol of S100A4 dimer

Q: And the “S100A4 monomer excess per M200 chain required for full solubilisation” value (M200 filaments [3])?
A: 2 -fold molar excess

Q: What about the drop in turbidity (M200 filaments [3]; 5 μM S100A4, M200 filaments, 100 mM NaCl) of the same substance?
A: 54%

Q: And the “effect of excess EGTA on solubilisation” value (M200 filaments [3]; excess EGTA)?
A: reversed the process, allowing M200 filaments to reform

Q: And the “turbidity after further S100A4” value (M200 filaments [3]; further 5 μM S100A4 (10 μM total))?
A: almost zero

Q: What about the “S100A4 monomer required to solubilise 1 mol of M200” value (M200 filaments [3]; per M200 polypeptide chain) of the same substance?
A: 2 mol of S100A4 monomer

Q: And the “n1 (Ca^2+ per monomer)” value ([4]; 10 °C, 75 μM protein (D63N 300 μM), 20 mM NaCl, 10 mM Hepes, 2 mM DTT, pH 7.5)?
A: 0.95 ± 0.014 Ca^2+ per monomer

Q: And the “n1 (Ca^2+ per monomer)” value ([4]; 30 °C, 75 μM protein (D63N 300 μM), 20 mM NaCl, 10 mM Hepes, 2 mM DTT, pH 7.5)?
A: 0.83 ± 0.2 Ca^2+ per monomer

Q: And the “stoichiometry (discussion)” value ([4]; ITC)?
A: one Ca^2+ per S100A4 monomer

Q: And the Kd ([4]; first site, Ca^2+ binding, 30 °C, 75 μM protein (D63N 300 μM), 20 mM NaCl, 10 mM Hepes, 2 mM DTT, pH 7.5, read-out: K1d)?
A: 1700 nM

Q: And the Kd ([4]; first site, 10 °C, wild type and E33Q cooperative, read-out: K1d)?
A: 1600 ± 400 nM

Q: And the Kd ([4]; one Ca^2+ per S100A4 monomer, read-out: Kd for Ca^2+ (discussion))?
A: 1700 nM

Q: And the Kd ([4]; read-out: Ca^2+ affinity of S100A4 dimer (discussion))?
A: 2000 to 6000 nM

Q: What about the “N2 (Ca^2+ per monomer)” value ([4]; second site, 30 °C) of the same substance?
A: 0.42 ± 0.27 Ca^2+ per monomer

Q: And the Kd ([4]; second site, 30 °C, read-out: K2d)?
A: 5700 ± 1100 nM

Q: And the “stoichiometry of the higher-affinity site” value ([4]; summary of Table 1)?
A: 0.8–0.9 Ca^2+ per monomer

Q: What about the Kd ([4]; temperatures of ≥ 30 °C, read-out: Kd of second site (discussion)) of the same substance?
A: 6000 nM

From publication PMC3025356, “Mechanism of the Ca^2+-Dependent Interaction between S100A4 and Tail Fragments of Nonmuscle Myosin Heavy Chain IIA” (Journal of Molecular Biology, 2011)
